Measured values from patent US20080248511A1, “METHODS TO QUENCH LIGHT FROM OPTICAL REACTIONS” (priority 2007, published 2008).
Read-outs that look alike come from different tables or passages of the source.

Legend:
Renilla luciferase [1] = biological target: T1, Renilla luciferase (Renilla reniformis, UniProt P27652); assay: Detergent titration with Tergitol NP-9, digitonin or no lysing agent, Renilla luciferase (Example 4); type: biochemical; settings: for remaining activity at 0.0005 % / remaining activity at 0.005 % / remaining activity at 0.05 %: read-out: Relative Renilla Luc Intensity
T1 sequence (P27652 1-311): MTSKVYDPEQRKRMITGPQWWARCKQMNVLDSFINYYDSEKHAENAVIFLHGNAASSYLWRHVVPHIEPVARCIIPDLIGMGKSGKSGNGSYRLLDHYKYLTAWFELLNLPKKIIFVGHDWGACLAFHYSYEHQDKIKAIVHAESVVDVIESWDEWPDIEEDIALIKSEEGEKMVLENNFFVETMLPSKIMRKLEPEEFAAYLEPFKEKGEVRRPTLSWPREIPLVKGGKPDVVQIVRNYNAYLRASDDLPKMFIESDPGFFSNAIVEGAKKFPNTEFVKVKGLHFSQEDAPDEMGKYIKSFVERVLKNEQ
Experimental: Renilla luciferase-mediated luminescence was measured from samples containing 9.6 mM phosphate buffer pH 6.8, 2.7 mM KCl, 137 mM NaCl (in PBS), 0.1% gelatin, 75 nM coelentrazine (Promega) and 10.2 ng/ml Renilla luciferase. Reactions contained either no lysing agent, 0.5% Tergitol NP-9 or 20 μg/ml digitonin. The detergents to be tested were titrated to 0.05%, 0.005% or 0.0005% in the reactions prior to the addition of the Renilla luciferase. Renilla luciferase-mediated luminescence was measured as described herein.

firefly luciferase [2] = biological target: T2, firefly luciferase (Photinus pyralis, UniProt P08659); assay: biochemical; settings: 0.5% detergent in Luciferase Assay Reagent; read-out: Retained Firefly Luciferase Luminescence (%)
T2 sequence (P08659 whole entry): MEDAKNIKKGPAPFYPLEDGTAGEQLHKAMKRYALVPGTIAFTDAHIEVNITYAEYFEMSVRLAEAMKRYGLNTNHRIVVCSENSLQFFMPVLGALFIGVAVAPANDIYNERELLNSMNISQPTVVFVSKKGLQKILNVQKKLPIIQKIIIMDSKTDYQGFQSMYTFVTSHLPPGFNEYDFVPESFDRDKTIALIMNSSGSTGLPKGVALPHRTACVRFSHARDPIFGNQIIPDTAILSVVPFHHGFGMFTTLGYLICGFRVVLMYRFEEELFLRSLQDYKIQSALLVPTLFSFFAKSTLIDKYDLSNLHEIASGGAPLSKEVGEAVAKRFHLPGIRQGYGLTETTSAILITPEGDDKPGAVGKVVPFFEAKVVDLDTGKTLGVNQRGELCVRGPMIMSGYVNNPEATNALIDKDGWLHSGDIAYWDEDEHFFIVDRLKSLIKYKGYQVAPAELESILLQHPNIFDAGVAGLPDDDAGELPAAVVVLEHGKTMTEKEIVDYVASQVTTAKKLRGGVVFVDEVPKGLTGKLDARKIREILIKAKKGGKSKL
Experimental: (§1) The retained luminescence for each luciferase was calculated by dividing the luminescence in the presence of the detergent by the luminescence in the absence of the test detergent. The selectivity value for each of the test detergents was determined by dividing the retained firefly luciferase luminescence by the retained Renilla luciferase luminescence.
(§2) A set of detergents (Table 2; Sigma-Aldrich) was added at 0.5% (from a 5% or 10% stock solution) to either Luciferase Assay Reagent (Promega) or Renilla Luciferase Assay Reagent (Promega) and allowed to equilibrate at room temperature.
(§3) The firefly luciferase and Renilla luciferase enzymes were diluted as follows. Firefly luciferase was diluted to 14 ng/ml in Phosphate Buffered Saline (PBS) containing 0.1% of the protein carrier Prionex® (Pentapharm). Renilla luciferase was diluted to 10 ng/ml in 1× Renilla Luciferase Lysis Buffer (Promega) containing 0.1% Prionex®. The Renilla Luciferase Lysis Buffer […] detergent micelles when using the Renilla Luciferase Assay Reagent. In the absence of other detergents, this prevents sequestering of coelenterazine which inhibits Renilla luciferase-mediated luminescence.
(§4) The luciferase reactions were initiated by adding 40 μl of either the firefly or Renilla luciferase enzyme solution to 200 μl of the appropriate reagent solution (firefly luciferase enzyme solution+firefly luciferase reagent solution or Renilla luciferase enzyme solution+Renilla luciferase reagent solution, respectively). The reactions were performed in an opaque white, 96-well plate and luminescence was measured for 0.5 seconds per well using a Turner BioSystems Veritas™ Microplate luminometer. The retained firefly luciferase and Renilla luciferase luminescence, as well as the selectivity values for each detergent, were calculated (Table 2).

firefly luciferase [3] = biological target: T2, firefly luciferase; assay: Detergent titration with Tergitol NP-9, digitonin or no lysing agent, firefly luciferase (Example 4); type: biochemical; settings: read-out: Relative Firefly Luc Intensity; for remaining activity at 0.0005 %: 0.0005% detergent; for remaining activity at 0.005 %: 0.0050% detergent; for remaining activity at 0.05 %: 0.0500% detergent
Experimental: For measurement of firefly luciferase-mediated luminescence, a solution containing 110 mM HEPES pH 7.5, 8 mM MgSO4, 0.05% gelatin, 7.35 ng/ml firefly luciferase (QuantiLum® Luciferase; Promega) and the content of the Steady-Glo Luciferase Substrate (Promega) at the equivalent of 1×, As in the Renilla luciferase reactions, reactions contained either no lysing agent, 0.5% Tergitol NP-9 or 20 μg/ml digitonin. The same detergents were titrated as described above and firefly luciferase-mediated luminescence was measured.

Renilla luciferase [4] = biological target: T1, Renilla luciferase; assay: biochemical; type: biochemical; settings: for remaining activity at 0.5 %: 0.5% detergent in Renilla Luciferase Assay Reagent, read-out: Retained Renilla Luciferase Luminescence (%); for Selectivity Value: retained firefly / retained Renilla, 0.5% detergent
Experimental: as §1, §2, §3, §4

[5] = 0.0500% (w:v) detergent, Terg (0.5% Tergitol NP-9)
[6] = 0.0500% detergent, Dig (20 μg/ml digitonin)
[7] = 0.0500% detergent, Water (no lysing agent)

| Structure (SMILES) | Selective Inhibition (Ff Luc Inh/Ren Luc Inh) (Renilla luciferase [1]; 0.0005% detergent, Dig) | remaining activity at 0.0005 % (Renilla luciferase [1]; 0.0005% detergent, Dig) | Selective Inhibition (Ff Luc Inh/Ren Luc Inh) (Renilla luciferase [1]; 0.0005% detergent, Terg) | remaining activity at 0.0005 % (Renilla luciferase [1]; 0.0005% detergent, Terg) | Selective Inhibition (Ff Luc Inh/Ren Luc Inh) (Renilla luciferase [1]; 0.0005% detergent, Water) | remaining activity at 0.0005 % (Renilla luciferase [1]; 0.0005% detergent, Water) | Selective Inhibition (Ff Luc Inh/Ren Luc Inh) (Renilla luciferase [1]; 0.0050% detergent, Dig) | remaining activity at 0.005 % (Renilla luciferase [1]; 0.0050% detergent, Dig) | Selective Inhibition (Ff Luc Inh/Ren Luc Inh) (Renilla luciferase [1]; 0.0050% detergent, Terg) | remaining activity at 0.005 % (Renilla luciferase [1]; 0.0050% detergent, Terg) | Selective Inhibition (Ff Luc Inh/Ren Luc Inh) (Renilla luciferase [1]; 0.0050% detergent, Water) | remaining activity at 0.005 % (Renilla luciferase [1]; 0.0050% detergent, Water) | remaining activity at 0.05 % (Renilla luciferase [1]; [5]) | Selective Inhibition (Ff Luc Inh/Ren Luc Inh) (Renilla luciferase [1]; 0.0500% detergent, Dig) | remaining activity at 0.05 % (Renilla luciferase [1]; [6]) | Selective Inhibition (Ff Luc Inh/Ren Luc Inh) (Renilla luciferase [1]; 0.0500% detergent, Terg) | Selective Inhibition (Ff Luc Inh/Ren Luc Inh) (Renilla luciferase [1]; 0.0500% detergent, Water) | remaining activity at 0.05 % (Renilla luciferase [1]; [7]) | remaining activity at 0.5 % (firefly luciferase [2]) | remaining activity at 0.0005 % (firefly luciferase [3]; Dig) | also measured |
| --- | --- | --- | --- | --- | --- | --- | --- | --- | --- | --- | --- | --- | --- | --- | --- | --- | --- | --- | --- | --- | --- |
| CCCCCCCCCCCC[N+](C)(C)C.[Br-] [Dodecyltrimethylammonium bromide] | 1.1 | 96% | 1.0 | 98% | 1.1 | 95% | 2.3 | 55% | 1.2 | 76% | 2.5 | 51% | 9% | 98 | 2% | 8 | 110 | 2% | 42.1% | 103% | remaining activity at 0.0005 % (firefly luciferase [3]; Terg): 96%; remaining activity at 0.0005 % (firefly luciferase [3]; Water): 107%; remaining activity at 0.005 % (firefly luciferase [3]; Dig): 128%; remaining activity at 0.005 % (firefly luciferase [3]; Terg): 93%; remaining activity at 0.005 % (firefly luciferase [3]; Water): 128%; remaining activity at 0.05 % (firefly luciferase [3]; Dig (20 μg/ml digitonin)): 184%; remaining activity at 0.05 % (firefly luciferase [3]; Terg (0.5% Tergitol NP-9)): 71%; remaining activity at 0.05 % (firefly luciferase [3]; Water (no lysing agent)): 197%; remaining activity at 0.5 % (Renilla luciferase [4]): 1.74%; Selectivity Value (Renilla luciferase [4]): 24.2 |
| Cc1cc(C)c(C[N+](C)(C)C)cc1C.[Br-] [Trimethyl(2,4,5-Trimethylbenzyl)ammonium bromide] | 1.8 | 63% | 1.0 | 92% | 1.9 | 62% | 18 | 3% | 1.2 | 67% | 17 | 3% | 4% | 47 | 0.03% | 2.9 | 50 | 0.03% | 0.06% | 116% | remaining activity at 0.0005 % (firefly luciferase [3]; Terg): 95%; remaining activity at 0.0005 % (firefly luciferase [3]; Water): 116%; remaining activity at 0.005 % (firefly luciferase [3]; Dig): 52%; remaining activity at 0.005 % (firefly luciferase [3]; Terg): 83%; remaining activity at 0.005 % (firefly luciferase [3]; Water): 54%; remaining activity at 0.05 % (firefly luciferase [3]; Dig (20 μg/ml digitonin)): 1%; remaining activity at 0.05 % (firefly luciferase [3]; Terg (0.5% Tergitol NP-9)): 12%; remaining activity at 0.05 % (firefly luciferase [3]; Water (no lysing agent)): 1%; remaining activity at 0.5 % (Renilla luciferase [4]): 1.87% |
| CCCCC[N+](CCCCC)(CCCCC)CCCCC.[Br-] [Tetrapentylammonium bromide] | 1.0 | 99% | 1.0 | 96% | 1.0 | 98% | 1.2 | 87% | 1.2 | 81% | 1.2 | 83% | 38% | 2.9 | 40% | 2.5 | 3.0 | 37% | 80.9% | 100% | remaining activity at 0.0005 % (firefly luciferase [3]; Terg): 97%; remaining activity at 0.0005 % (firefly luciferase [3]; Water): 98%; remaining activity at 0.005 % (firefly luciferase [3]; Dig): 104%; remaining activity at 0.005 % (firefly luciferase [3]; Terg): 96%; remaining activity at 0.005 % (firefly luciferase [3]; Water): 101%; remaining activity at 0.05 % (firefly luciferase [3]; Dig (20 μg/ml digitonin)): 117%; remaining activity at 0.05 % (firefly luciferase [3]; Terg (0.5% Tergitol NP-9)): 95%; remaining activity at 0.05 % (firefly luciferase [3]; Water (no lysing agent)): 110%; remaining activity at 0.5 % (Renilla luciferase [4]): 37%; Selectivity Value (Renilla luciferase [4]): 2.2 |
| CCCCCCCCCCCCCC[N+](C)(C)Cc1ccccc1.[Br-] [Benzyldimethyltetradecylammonium bromide] | 11.0 | 14% | 1.0 | 96% | 10.2 | 12% | 5067 | 0.03% | 1.3 | 70% | 7068 | 0.01% | 5% | 60 | 0.02% | 10 | 451 | 0.02% | 0.21% | 155% | remaining activity at 0.0005 % (firefly luciferase [3]; Terg): 98%; remaining activity at 0.0005 % (firefly luciferase [3]; Water): 126%; remaining activity at 0.005 % (firefly luciferase [3]; Dig): 128%; remaining activity at 0.005 % (firefly luciferase [3]; Terg): 93%; remaining activity at 0.005 % (firefly luciferase [3]; Water): 106%; remaining activity at 0.05 % (firefly luciferase [3]; Dig (20 μg/ml digitonin)): 1.4%; remaining activity at 0.05 % (firefly luciferase [3]; Terg (0.5% Tergitol NP-9)): 45%; remaining activity at 0.05 % (firefly luciferase [3]; Water (no lysing agent)): 10%; remaining activity at 0.5 % (Renilla luciferase [4]): 0.13%; Selectivity Value (Renilla luciferase [4]): 1.6 |
